# Measurements taken from US20240376097A1, “BCL-2 Inhibitor” (BeiGene Ltd., priority 2020, published 2024).
# Experiments:
# Assay type in all cases: binding
# [1] = system: recombinant human Bcl-2-G101V protein; assay: Bcl-2-G101V TR-FRET Assay; conditions: ratio of biochemical IC50 Bcl-2 G101V / Bcl-2 WT
# Method: (§1) Biological Example: Bcl-2-G101V TR-FRET Assay
# (§2) […]. The TR-FRET signals (ex337 nm, em490 nm/520 nm) were read on BMG PHERAstar FSX instrument. The inhibition percentage of Bcl-2-G101V interaction with its ligand in presence of increasing concentrations of compounds was calculated based on the ratio of fluorescence at 490 nm to that at 520 nm. The IC50 for each compound was derived from fitting the data to the four-parameter logistic equation by Graphpad Prism software or Dotmatics.
# [2] = target: recombinant human Bcl-2-G101V protein (Homo sapiens (Human), UniProt P10415, G101V); assay: Bcl-2-G101V TR-FRET Assay; conditions: Bcl-2 G101V mutant, TR-FRET; read-out: Biochemical assay (IC50, nM) Bcl-2 G101V
# Method: as §1, §2
# [3] = target: Recombinant human Bcl-2 protein (Homo sapiens (Human), UniProt P10415); assay: Bcl-2 TR-FRET Assay; conditions: Bcl-2 wild type, TR-FRET; read-out: Biochemical assay (IC50, nM) Bcl-2 WT
# Method: Biological Example: Bcl-2 TR-FRET Assay
# Compounds disclosed herein were tested for blocking of Bcl-2 protein with its ligand in an assay based on Time-Resolved Fluorescence Resonance Energy Transfer (TR-FRET) methodology. Recombinant human 0.05 nM Bcl-2 protein was pre-incubated with a serial dilution of compounds disclosed herein (top final concentration is 1 uM or 0.1 uM or 0.02 uM or 0.01 uM, 10 points) at room temperature for 0.5 hour in an assay buffer containing 20 mM potassium phosphate buffer, pH 7.5, 50 mM NaCl. 1 mM EDTA, 0.05% Tween-20, 0.01% BSA. Then the FITC labeled Bak peptide Ac-GQVGRQLAIIGDK(FITC)INR-amide (0.5 nM) and MAb Anti 6His Tb cryptate Gold were added to plate and further incubated at room temperature for 1 hour. The TR-FRET signals (337 nm-520 nm-490 nm) were read on BMG PHERAstar FSX instrument. The inhibition percentage of Bcl-2 interaction with its ligand in presence of increasing concentrations of compounds was calculated based on the TR-FRET signals. The IC50 for each compound was derived from fitting the data to the four-parameter logistic equation by Graphpad Prism software or Dotmatics.
SMILES,Ratio of Bcl-2 G101V/WT [1],IC50 [2],IC50 [3]
"CC(C)c1ccccc1[C@@H]1CN(Cc2ccc(C3CCOCC3)cc2)CCN1C1CC2(C1)CN(c1ccc(C(=O)NS(=O)(=O)c3ccc(NC[C@H]4CC[C@](C)(O)CC4)c([N+](=O)[O-])c3)c(Oc3cnc4[nH]cc(F)c4c3)c1)C2 [Example 370, 2-((3-fluoro-1H-pyrrolo[2,3-b]pyridin-5-yl)oxy)-N-((4-((((1r,4r)-4-hydroxy-4-methylcyclohexyl)methyl)amino)-3-nitrophenyl)sulfonyl)-4-(6-((R)-2-(2-isopropylphenyl)-4-(4-(tetrahydro-2H-pyran-4-yl)benzyl)piperazin-1-yl)-2-azaspiro[3.3]heptan-2-yl) benzamide]",3.7,0.67 nM,0.18 nM
"CC(C)c1ccccc1[C@H]1CN(C(C)C)CCN1C1CC2(CCN(c3ccc(C(=O)NS(=O)(=O)c4ccc(NC[C@H]5CC[C@](C)(O)CC5)c([N+](=O)[O-])c4)c(Oc4cnc5[nH]ccc5c4)c3)CC2)C1 (single isomer, unassigned) [Example 3b, 2-((1H-pyrrolo[2,3-b]pyridin-5-yl)oxy)-N-((4-((((1r,4r)-4-hydroxy-4-methylcyclohexyl)methyl)amino)-3-nitrophenyl)sulfonyl)-4-(2-((R or S)-4-isopropyl-2-(2-isopropylphenyl)piperazin-1-yl)-7-azaspiro[3.5]nonan-7-yl)benzamide]",16.9,0.14 nM,0.0083 nM
CC#CC(c1ccccc1)N1CCN(C2CC3(CCN(c4ccc(C(=O)NS(=O)(=O)c5ccc(NC[C@H]6CC[C@](C)(O)CC6)c([N+](=O)[O-])c5)c(Oc5cnc6[nH]ccc6c5)c4)CC3)C2)C(c2ccccc2C(C)C)C1 (stereo partly drawn) [Example 63],14.3,20 nM,1.4 nM
"CC(C)c1ccccc1C1CN(Cc2ccc(Cl)c(Cl)c2)CCN1C1CC2(CCN(c3ccc(C(=O)NS(=O)(=O)c4ccc(NC[C@H]5CC[C@](C)(O)CC5)c([N+](=O)[O-])c4)c(Oc4cnc5[nH]ccc5c4)c3)CC2)C1 (stereo partly drawn) [Example 117, 2-((1H-pyrrolo[2,3-b]pyridin-5-yl)oxy)-4-(2-(4-(3,4-dichlorobenzyl)-2-(2-isopropylphenyl)piperazin-1-yl)-7-azaspiro[3.5]nonan-7-yl)-N-((4-((((1r,4r)-4-hydroxy-4-methylcyclohexyl)methyl)amino)-3-nitrophenyl)sulfonyl)benzamide]",4.4,7.1 nM,1.6 nM
"COc1ccc(CN2CCN(C3CC4(CCN(c5ccc(C(=O)NS(=O)(=O)c6ccc(NC[C@H]7CC[C@](C)(O)CC7)c([N+](=O)[O-])c6)c(Oc6cnc7[nH]ccc7c6)c5)CC4)C3)C(c3ccccc3CC(C)C)C2)cc1 (stereo partly drawn) [Example 35, 2-((1H-pyrrolo[2,3-b]pyridin-5-yl)oxy)-N-((4-((((1r,4r)-4-hydroxy-4-methylcyclohexyl)methyl)amino)-3-nitrophenyl)sulfonyl)-4-(2-(2-(2-isobutylphenyl)-4-(4-methoxybenzyl)piperazin-1-yl)-7-azaspiro[3.5]nonan-7-yl) benzamide]",74.1,163 nM,2.2 nM
COc1cc(CN2CCN(C3CC4(CCN(c5ccc(C(=O)NS(=O)(=O)c6ccc(NC[C@H]7CC[C@](C)(O)CC7)c([N+](=O)[O-])c6)c(Oc6cnc7[nH]cc(F)c7c6)c5)CC4)C3)[C@H](c3ccccc3C(C)C)C2)ccc1C(F)(F)F [Example 279],3.2,6.3 nM,2 nM
"CC(C)c1ccccc1C1CN(Cc2cccc3c2CCCC3)CCN1C1CC2(CCN(c3ccc(C(=O)NS(=O)(=O)c4ccc(NC[C@H]5CC[C@](C)(O)CC5)c([N+](=O)[O-])c4)c(Oc4cnc5[nH]ccc5c4)c3)CC2)C1 (stereo partly drawn) [Example 55, 2-((1H-pyrrolo[2,3-b]pyridin-5-yl)oxy)-N-((4-((((1r,4r)-4-hydroxy-4-methylcyclohexyl)methyl)amino)-3-nitrophenyl)sulfonyl)-4-(2-(2-(2-isopropylphenyl)-4-((5,6,7,8-tetrahydronaphthalen-1-yl)methyl)piperazin-1-yl)-7-azaspiro[3.5]nonan-7-yl)benzamide]",3.2,12 nM,3.8 nM
"CC(C)c1ccccc1C1CN(Cc2cccc3c2CCCC3)CCN1C1CC2(CCN(c3ccc(C(=O)NS(=O)(=O)c4ccc(NCC5CCOCC5)c([N+](=O)[O-])c4)c(Oc4cnc5[nH]ccc5c4)c3)CC2)C1 (stereo not drawn) [Example 56, 2-((1H-pyrrolo[2,3-b]pyridin-5-yl)oxy)-4-(2-(2-(2-isopropylphenyl)-4-((5,6,7,8-tetrahydronaphthalen-1-yl)methyl)piperazin-1-yl)-7-azaspiro[3.5]nonan-7-yl)-N-((3-nitro-4-(((tetrahydro-2H-pyran-4-yl)methyl)amino)phenyl)sulfonyl) benzamide]",4.8,13 nM,2.7 nM
"COc1cc(CN2CCN(C3CC4(C3)CN(c3ccc(C(=O)NS(=O)(=O)c5ccc(NC[C@H]6CC[C@](C)(O)CC6)c([N+](=O)[O-])c5)c(Oc5cnc6[nH]cc(F)c6c5)c3)C4)[C@H](c3ccccc3C(C)C)C2)ccc1C(F)(F)F [Example 289, 2-((3-fluoro-1H-pyrrolo[2,3-b]pyridin-5-yl)oxy)-N-((4-((((1r,4r)-4-hydroxy-4-methylcyclohexyl)methyl)amino)-3-nitrophenyl)sulfonyl)-4-(6-((R)-2-(2-isopropylphenyl)-4-(3-methoxy-4-(trifluoromethyl)benzyl)piperazin-1-yl)-2-azaspiro[3.3]heptan-2-yl) benzamide]",2.3,4 nM,1.7 nM
COc1cc(CN2CCN(C3CC4(CCN(c5ccc(C(=O)NS(=O)(=O)c6ccc(NC[C@H]7CC[C@](C)(O)CC7)c([N+](=O)[O-])c6)c(Oc6cnc7[nH]ccc7c6)c5)CC4)C3)[C@H](c3ccccc3C(C)C)C2)ccc1CC(C)C [Example 293],3.4,11 nM,3.2 nM
"COc1ccc(CN2CCN(C3CC4(CCN(c5ccc(C(=O)NS(=O)(=O)c6ccc(NC[C@H]7CC[C@](C)(O)CC7)c([N+](=O)[O-])c6)c(Oc6cnc7[nH]cc(F)c7c6)c5)CC4)C3)[C@H](c3ccccc3C(C)C)C2)cc1 (single isomer, unassigned) [Example 95, 2-((3-fluoro-1H-pyrrolo[2,3-b]pyridin-5-yl)oxy)-N-((4-((((1r,4r)-4-hydroxy-4-methylcyclohexyl)methyl)amino)-3-nitrophenyl)sulfonyl)-4-(2-((R or S)-2-(2-isopropylphenyl)-4-(4-methoxybenzyl)piperazin-1-yl)-7-azaspiro[3.5]nonan-7-yl) benzamide]",1.7,0.38 nM,0.23 nM
"COc1ccc(CN2CCN(C3CC4(CCN(c5ccc(C(=O)NS(=O)(=O)c6ccc(NC[C@H]7CC[C@](C)(O)CC7)c([N+](=O)[O-])c6)c(Oc6cnc7[nH]ccc7c6)c5)CC4)C3)C(c3cc(Cl)ccc3C(C)C)C2)cc1 (stereo partly drawn) [Example 247, 2-((1H-pyrrolo[2,3-b]pyridin-5-yl)oxy)-4-(2-(2-(5-chloro-2-isopropylphenyl)-4-(4-methoxybenzyl)piperazin-1-yl)-7-azaspiro[3.5]nonan-7-yl)-N-((4-((((1r,4r)-4-hydroxy-4-methylcyclohexyl)methyl)amino)-3-nitrophenyl)sulfonyl)benzamide]",4.2,3.3 nM,0.8 nM
